Measured values from US20110015223A1, “Compounds and methods for treatment of cancer-related anemia” (FibroGen, Inc., priority 2006, published 2011).
Marks after values point to notes of the source that are not given here.

Experiments:
[1] = tested on: human H-460 lung cancer tumor-bearing nude mice; experiment: Blood parameters in nude mice with subcutaneous H-460 lung tumors (anemia of cancer, Example 1); format: in vivo; details: M, W, F x 4, subcutaneous H-460 tumors, study endpoint
Source text: (§1) Immuno-compromised athymic CD-1 nu/nu nude mice males (5-6 weeks old) were used in this study (Charles River Laboratories, Wilmington, Mass.). Animals were maintained in a HEPA-filtered environment during the experimental period. Cages, food, and bedding were autoclaved. Animal diets were obtained from Harlan Teklad (Madison, Wis.).
Compounds of the invention were pre-formulated in an aqueous vehicle consisting of 0.1% (w/w) Polysorbate 80 (JT Baker) and 0.5% (w/w) high viscosity carboxymethyl cellulose sodium (Spectrum) to achieve a final 10 ml/kg dosing (oral gavage).
The human H-460 lung cancer cell line used was obtained from the National Cancer Institute. […] The resulting tumor was maintained in nude mice subcutaneously as tumor stock prior to use. Tumor implantation was performed when the stock tumors were in log phase of growth. […] Necrotic tissues were dissected away and viable tissues were cut into 1-2 mm^2 pieces. Tumor fragments were then transplanted subcutaneously to the right flank of the nude mice.
Treatment (administration of compounds of the present invention) was started when the inoculated tumors reached approximately 100 mm^3, and continued for four weeks.
These include red blood cell counts, hemoglobin, hematocrit, mean corpuscular volume, mean corpuscular hemoglobin, mean corpuscular hemoglobin concentration, red blood cell distribution, reticulocytes, reticulocyte counts, and immature reticulocyte fraction.

[2] = tested on: OVCAR3 tumor-bearing female CB.17 SCID mice; experiment: Hematocrit in OVCAR3 ovarian tumor-bearing SCID mice (Example 5, FIG. 2); format: in vivo; details: in words (FIG. 2); 60 mg/kg; 29 days treatment
Source text: Tumors used in this study were OVCAR3 ovarian tumors. OVCAR3 tumor fragments (1 mm^3) were implanted subcutaneously into the flanks of female CB.17 SCID mice. The number of animals in each treatment group was 10. […] After 29 days treatment, animals were sacrificed and blood was collected for determination of hematocrit (HCT).

[3] = tested on: MDA-MB-435-GFP breast tumor-bearing female CD-1 nude mice; details: in words (FIG. 1); 20 mg/kg or 60 mg/kg; 33 days treatment; MDA-MB-435-GFP breast tumors
Procedure: The effectiveness of methods and compounds of the present invention at treating or preventing the development of anemia of cancer was examined as follows. In this study, experiments were performed essentially as described above in Example 1, with the following modifications. Tumors used in this study were MDA-MB-435-GFP breast tumors, and surgical orthotopic tumor fragment implantation was done directly into breast tissue of female CD-1 nude animals. The number of animals in each group was 15. […] After mean tumor volume in the vehicle control group exceeded 1 cm^3, animals were sacrificed (33 days treatment) and hematocrit was measured.

[4] = tested on: H-460-GFP human lung tumor-bearing nude mice (orthotopically xenografted); experiment: Plasma erythropoietin (EPO) by ELISA in nude mice with orthotopic H-460-GFP lung tumors (Example 3); format: in vivo; details: orthotopic H-460-GFP tumors; for plasma EPO levels compared to vehicle-treated control animals: in words, Compound A 20 or 60 mg/kg, Compounds C, D, E 20 mg/kg
Procedure: (§2) The effectiveness of administration of compounds of the present invention at preventing the development of anemia of cancer or at treating anemia of cancer in an animal model of cancer was examined. […] Genetically-engineered tumors of GFP-transfected H-460 cells were used in this study. The human H-460 lung cancer cell line used was obtained from the National Cancer Institute. […] Compounds were administered three-times per week
Plasma was isolated from these animals 6 hours following administration of the final dose of compound. Plasma erythropoietin (EPO) levels were determined by ELISA.

[5] = tested on: H-460-GFP human lung tumor-bearing nude mice (orthotopically xenografted); experiment: RBC, HGB and HCT in nude mice with orthotopic H-460-GFP lung tumors (Example 3); format: in vivo; details: 20 mg/kg three-times per week; whole blood 6 hours after final dose; orthotopic H-460-GFP tumors; mean +/- SD
Procedure: as §2
Whole blood was collected from these animals 6 hours following administration of the final dose of compound. Various measurable blood parameters indicative of erythropoiesis and treatment of anemia (red blood cell count, hemoglobin, and hematocrit) were analyzed.

[6] = tested on: A549 human lung tumor-bearing nude mice; experiment: Plasma erythropoietin (EPO) by ELISA in nude mice with subcutaneous A549 lung tumors (Example 2); format: in vivo; details: for Mean [EPO]: four weeks, plasma 6 hours after final dose; for plasma EPO levels compared to vehicle-treated control animals: in words, Compound A 20 or 60 mg/kg, Compound C 20 mg/kg, Compound D 20 or 60 mg/kg as worded in text
Source text: as §1
Compounds of the invention were formulated in an aqueous vehicle consisting of 0.1% (w/w) Polysorbate 80 (JT Baker) and 0.5% (w/w) high viscosity carboxymethyl cellulose sodium (Spectrum) to achieve a final 10 ml/kg dosing (oral gavage).
The A549 human lung cancer cell line was used. This cell line has been characterized extensively.
A stock tumor was developed by subcutaneoulsy injecting an A549 cell suspension into stock mice. The resulting tumor was maintained subcutaneously as tumor stock prior to use. Tumor implantation was performed when the stock tumors were in log phase of growth. […] Necrotic tissues were dissected away and viable tissues were cut into 1-2 mm^2 pieces. Tumor fragments were then transplanted subcutaneously to the right flank of the nude mice.
Administration of compounds of the present invention (administered three-times per week) was initiated when the inoculated tumors reached approximately 100 mm^3, and continued for four weeks thereafter.
Plasma was isolated from the animals 6 hours following administration of the final dose of compound. Plasma erythropoietin (EPO) levels were determined by ELISA.

[7] = 20 mg/kg three-times per week, plasma 6 hours after final dose
[8] = 20 mg/kg oral gavage three-times per week

Compound	Abs Retic, reticulocyte count ([1]; 20 mg/kg PO)	HCT, hematocrit ([1]; 20 mg/kg PO) [%]	HGB, hemoglobin ([1]; 20 mg/kg PO) [g/dL]	IRF, immature RET fraction ([1]; 20 mg/kg PO)	MCH, mean corpuscular hemoglobin ([1]; 20 mg/kg PO) [pg]	MCHC, MCH concentration ([1]; 20 mg/kg PO) [g/dL]	RDW, RBC distribution width ([1]; 20 mg/kg PO) [%]	RET, reticulocytes ([1]; 20 mg/kg PO) [%]	hematocrit levels in OVCAR3 tumor-bearing animals [2]	MCV, mean corpuscular volume ([1]; 20 mg/kg PO) [fL]	RBC, red blood cells ([1]; 20 mg/kg PO) [µL⁻¹]	Average [EPO] [4, 7] [pg/mL]	plasma EPO levels compared to vehicle-treated control animals [4]	HCT [5]	HGB [5] [g/dL]	RBC [5]	Mean [EPO] [6, 8]	plasma EPO levels compared to vehicle-treated control animals [6]	further results
O=C(O)CNC(=O)c1nc(Cl)c2ccccc2c1O [Cmpd A]	559	40.4	13.3	0.63	15.1	33.1	21.3	6.4	increased										Abs Retic, reticulocyte count ([1]; 60 mg/kg PO): 539; HCT, hematocrit ([1]; 60 mg/kg PO): 39.5%; HGB, hemoglobin ([1]; 60 mg/kg PO): 13.5 g/dL; IRF, immature RET fraction ([1]; 60 mg/kg PO): 0.65; MCH, mean corpuscular hemoglobin ([1]; 60 mg/kg PO): 15.6 pg; MCHC, MCH concentration ([1]; 60 mg/kg PO): 34.2 g/dL; RDW, RBC distribution width ([1]; 60 mg/kg PO): 23.6%; RET, reticulocytes ([1]; 60 mg/kg PO): 6.5%; hematocrit levels compared to non-treated control animals with cancer [3]: increased
C[C@H](NC(=O)c1ncc2cc(Oc3ccccc3)ccc2c1O)C(=O)O [Cmpd B, (S)-2-[(4-Hydroxy-7-phenoxy-isoquinoline-3-carbonyl)-amino]-propionic acid]	552	37.7	12.7	0.56	14.5	33.7	21.7	6.3		43.0	8.78e+06								Abs Retic, reticulocyte count ([1]; 6 mg/kg PO): 653; HCT, hematocrit ([1]; 6 mg/kg PO): 37.7%; HGB, hemoglobin ([1]; 6 mg/kg PO): 12.7 g/dL; IRF, immature RET fraction ([1]; 6 mg/kg PO): 0.64; MCH, mean corpuscular hemoglobin ([1]; 6 mg/kg PO): 14.6 pg; MCHC, MCH concentration ([1]; 6 mg/kg PO): 33.8 g/dL; MCV, mean corpuscular volume ([1]; 6 mg/kg PO): 43.2 fL; RBC, red blood cells ([1]; 6 mg/kg PO): 8.71e+06 µL⁻¹; RDW, RBC distribution width ([1]; 6 mg/kg PO): 21.4%; RET, reticulocytes ([1]; 6 mg/kg PO): 7.5%
COc1ccc(Oc2ccc3c(O)c(C(=O)NCC(=O)O)ncc3c2)cc1 [Cmpd C, {[4-Hydroxy-7-(4-methoxy-phenoxy)-isoquinoline-3-carbonyl]-amino}-acetic acid]	457	41.1	14.0	0.56	14.9	34.1	22.3	4.9		43.8	9.36e+06	5898	elevated	47.2 +/− 5.6%	16.3 ± 1.6	9.8 +/− 1.1	3581* pg/ml	increased	
Cc1nc(C(=O)NCC(=O)O)c(O)c2ccc(Oc3ccccc3)cc12 [Cmpd D, [(4-Hydroxy-1-methyl-7-phenoxy-isoquinoline-3-carbonyl)-amino]-acetic acid]									increased			2176	elevated	45.6 +/− 1.8%	15.4 ± 0.6	9.3 +/− 0.5	489 pg/mL	increased	Mean [EPO] ([6]; 6 mg/kg oral gavage three-times per week): 455 pg/mL
rhEPO: recombinant human erythropoietin (EPO)																			Average [EPO] ([4]; rhEPO group, dose not given, plasma): 215 pg/mL
